Structures can show the parent of a compound that is named as a salt.

For one assay, the target named is human FGFR-1 (Homo sapiens, UniProt P11362). As to the kind of experiment: FGFR-1 high ATP kinase assay (TR-FRET).
Another assay deals with human mTOR (Homo sapiens (Human), UniProt P42345). The assay is described as follows: mTOR kinase assay (TR-FRET, for comparative purposes). The note with it: for inhibition at 1 µM: read-out: mTOR % inhibition @ 1 μM, 1 μM test compound, 40 μM ATP, mean values. It is filed as biochemical. The procedure: mTOR inhibitory activity of the compounds of the present invention was quantified employing the TR-FRET based mTOR assay as described in the following paragraphs:
Test compounds were dissolved in DMSO to generate 10 mM stock solutions. These solutions were first 10-fold diluted by 100% DMSO to get 1 mM solutions in 100% DMSO, then 100-fold diluted by 50% DMSO to get 10 μM solutions in 50% DMSO.
(final concentration in the 10 μl assay volume=1 nM) in FRET buffer.
For this, the fluorescence emissions at 495 nm and 520 nm after excitation at 340 nm was measured in an Envision 2104 multilabel reader (Perkin-Elmer).
A general note: In TR-FRET formats the signal depends on donor and acceptor labels being close together.

A further assay deals with human FGFR-3 (Homo sapiens (Human), UniProt P22607). The assay is described as follows: FGFR-3 kinase assay (TR-FRET). The class given is biochemical. The note with it: 10 μM ATP, 15 min pre-incubation with enzyme.
Chain of human FGFR-3 (P22607 397-806): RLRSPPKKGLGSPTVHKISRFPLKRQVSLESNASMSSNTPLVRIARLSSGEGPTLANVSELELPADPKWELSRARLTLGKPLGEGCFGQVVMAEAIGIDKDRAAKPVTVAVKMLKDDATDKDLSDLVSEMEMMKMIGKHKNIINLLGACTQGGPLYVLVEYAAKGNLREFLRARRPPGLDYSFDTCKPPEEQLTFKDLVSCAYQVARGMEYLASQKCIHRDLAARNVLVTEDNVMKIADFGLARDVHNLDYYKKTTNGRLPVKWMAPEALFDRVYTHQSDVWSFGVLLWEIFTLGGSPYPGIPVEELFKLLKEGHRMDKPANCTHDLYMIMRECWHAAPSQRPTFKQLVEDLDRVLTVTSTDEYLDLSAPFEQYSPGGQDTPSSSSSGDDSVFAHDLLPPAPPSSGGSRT

Chain of human FGFR-1 (P11362 22-822 limits assumed): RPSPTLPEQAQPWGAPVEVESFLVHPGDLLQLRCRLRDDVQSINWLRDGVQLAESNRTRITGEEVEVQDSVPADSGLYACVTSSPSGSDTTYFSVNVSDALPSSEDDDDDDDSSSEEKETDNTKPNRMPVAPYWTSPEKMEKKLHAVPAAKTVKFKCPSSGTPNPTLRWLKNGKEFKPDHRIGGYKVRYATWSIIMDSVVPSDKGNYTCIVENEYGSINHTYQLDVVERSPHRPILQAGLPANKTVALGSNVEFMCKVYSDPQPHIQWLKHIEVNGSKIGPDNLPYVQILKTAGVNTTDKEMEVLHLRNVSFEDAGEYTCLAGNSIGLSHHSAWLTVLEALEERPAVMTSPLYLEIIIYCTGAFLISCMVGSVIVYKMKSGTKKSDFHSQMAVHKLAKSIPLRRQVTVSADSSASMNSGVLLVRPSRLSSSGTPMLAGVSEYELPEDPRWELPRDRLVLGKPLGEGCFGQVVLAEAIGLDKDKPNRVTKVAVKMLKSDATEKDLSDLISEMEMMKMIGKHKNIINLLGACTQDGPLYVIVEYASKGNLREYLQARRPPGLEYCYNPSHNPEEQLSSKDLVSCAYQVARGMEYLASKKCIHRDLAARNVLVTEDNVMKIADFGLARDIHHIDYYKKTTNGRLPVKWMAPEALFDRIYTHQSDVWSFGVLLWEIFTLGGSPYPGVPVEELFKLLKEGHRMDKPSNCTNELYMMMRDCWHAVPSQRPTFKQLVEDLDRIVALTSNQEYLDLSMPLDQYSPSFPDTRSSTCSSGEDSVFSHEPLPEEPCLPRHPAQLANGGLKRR
Chain of human mTOR (P42345 1360-2549): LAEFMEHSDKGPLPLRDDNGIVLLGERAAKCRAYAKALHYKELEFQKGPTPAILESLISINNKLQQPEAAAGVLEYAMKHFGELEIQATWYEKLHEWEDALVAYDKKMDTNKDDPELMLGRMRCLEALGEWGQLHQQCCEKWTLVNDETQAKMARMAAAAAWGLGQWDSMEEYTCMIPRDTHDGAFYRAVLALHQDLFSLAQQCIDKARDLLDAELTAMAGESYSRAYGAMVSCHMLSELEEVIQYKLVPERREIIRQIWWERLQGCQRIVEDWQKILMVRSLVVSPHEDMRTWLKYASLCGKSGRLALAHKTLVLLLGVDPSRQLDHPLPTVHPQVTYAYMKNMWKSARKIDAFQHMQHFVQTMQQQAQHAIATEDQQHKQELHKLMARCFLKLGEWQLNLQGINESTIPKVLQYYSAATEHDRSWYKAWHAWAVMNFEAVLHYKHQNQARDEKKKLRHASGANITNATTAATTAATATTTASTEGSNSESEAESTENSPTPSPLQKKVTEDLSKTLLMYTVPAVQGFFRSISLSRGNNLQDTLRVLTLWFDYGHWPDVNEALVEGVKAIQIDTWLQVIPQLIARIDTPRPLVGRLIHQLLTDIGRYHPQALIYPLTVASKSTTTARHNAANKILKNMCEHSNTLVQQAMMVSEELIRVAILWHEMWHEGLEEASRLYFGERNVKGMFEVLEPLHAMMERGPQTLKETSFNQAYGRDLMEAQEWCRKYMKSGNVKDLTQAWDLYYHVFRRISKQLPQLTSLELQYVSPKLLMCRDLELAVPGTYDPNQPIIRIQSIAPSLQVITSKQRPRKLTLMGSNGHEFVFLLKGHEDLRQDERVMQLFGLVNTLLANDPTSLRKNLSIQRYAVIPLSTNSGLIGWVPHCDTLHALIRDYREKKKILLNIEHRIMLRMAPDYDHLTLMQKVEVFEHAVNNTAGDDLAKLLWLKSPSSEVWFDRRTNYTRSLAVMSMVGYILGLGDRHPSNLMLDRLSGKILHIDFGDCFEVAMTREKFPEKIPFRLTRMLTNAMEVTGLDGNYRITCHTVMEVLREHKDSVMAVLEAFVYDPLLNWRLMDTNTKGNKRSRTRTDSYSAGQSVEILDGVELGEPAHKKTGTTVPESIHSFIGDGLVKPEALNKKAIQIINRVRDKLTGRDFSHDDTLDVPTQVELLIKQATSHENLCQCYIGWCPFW

In the case of `COc1cc(C)cc2cc(-c3cc(CN4CCNC(c5cccs5)C4)n4ncnc(N)c34)sc12` (stereo not shown) [Example 35], at human FGFR-1, the IC50 came to 16.4 nM. Moreover, the inhibition at 1 µM at human mTOR came out at 34%.

In the case of `COc1cc(C)cc2cc(-c3cc(CNCCO)n4ncnc(N)c34)sc12` [Example 72], the IC50 on human FGFR-1 stood at 65 nM; against human FGFR-3, 47.2 nM. In addition, at human mTOR (1 μM test compound, 40 μM ATP, mean values), the “mTOR % inhibition @ 1 μM” value is on record as “no inhib. effect detect”.

Take `COc1cc(C)cc2cc(-c3cc(COCCN)n4ncnc(N)c34)sc12` [Example 120]: the IC50 is 50.8 nM against human FGFR-1 and 53.9 nM at human FGFR-3. Besides, at human mTOR, the inhibition at 1 µM was 14.8%.

`COc1cc(C)cc2cc(-c3cc(CN4CCC(O)CC4)n4ncnc(N)c34)sc12` [Example 88]: the IC50 on human FGFR-1 came out at 15.7 nM; against human FGFR-3, 21.3 nM. In addition, the inhibition at 1 µM at human mTOR was 29.5%.

As for `COc1cc(C)cc2cc(-c3cc(CN4CC(C)NCC4C)n4ncnc(N)c34)sc12` (stereo not shown) [Example 44], 38.8 nM corresponded to half-maximal inhibition at human FGFR-1 (IC50). The inhibition at 1 µM at human mTOR came to 10.8%.

Turning to `COc1cc(C)cc2cc(-c3cc(CN4CCC5CN(C)CC54)n4ncnc(N)c34)sc12` (stereo not shown) [Example 24], the IC50 came to 34.1 nM against human FGFR-1 and 119 nM against human FGFR-3. Besides, on human mTOR, the inhibition at 1 µM was determined as 17.3%.

With `CNCCOCc1cc(-c2cc3cc(C)cc(OC)c3s2)c2c(N)ncnn12` [Example 117], the results for the IC50 against human FGFR-1 and against human FGFR-3 were 36.1 nM and 34.8 nM, respectively. The inhibition at 1 µM on human mTOR turned out to be 0.3%.

In turn, `COc1cc(C)cc2cc(-c3cc(CN4CCNC(C)C4)n4ncnc(N)c34)sc12` (stereo not shown) [Example 51] had an IC50 against human FGFR-1 of 41.3 nM. Also, on human mTOR, the inhibition at 1 µM was 0.9%.

As for `COc1cc(C)cc2cc(-c3cc(COCCNC(C)C)n4ncnc(N)c34)sc12` [Example 115], the IC50 is 78.6 nM against human FGFR-1 and 63.9 nM against human FGFR-3. Besides, at human mTOR, the inhibition at 1 µM was 6.5%.

With `COc1cc(Cl)cc2cc(-c3cc(CN4CCNCC4)n4ncnc(N)c34)sc12` [Example 4, 5-(5-Chloro-7-methoxy-1-benzothiophen-2-yl)-7-(piperazin-1-ylmethyl)pyrrolo[2,1-f][1,2,4]-triazin-4-amine trihydrochloride], the results for the IC50 on human FGFR-1 and against human FGFR-3 were 34.7 nM and 79 nM, respectively. On human mTOR, the inhibition at 1 µM came out at 26.2%.

Consider `COc1cccc2cc(-c3cc(CN4CCNCC4)n4ncnc(N)c34)sc12` [Example 3, 5-(7-Methoxy-1-benzothiophen-2-yl)-7-(piperazin-1-ylmethyl)pyrrolo[2,1-f][1,2,4]triazin-4-amine], for which, at human FGFR-1, the midpoint of inhibition, the IC50, lay at 92.8 nM. Moreover, the inhibition at 1 µM at human mTOR stood at 12.2%.

As for `COc1cc(C)cc2cc(-c3cc(CN4CC[C@@H](N)C4)n4ncnc(N)c34)sc12` [Example 53], the IC50 is 94.1 nM on human FGFR-1 and 145 nM on human FGFR-3. Moreover, the inhibition at 1 µM at human mTOR is 12.6%.

For `COc1cc(C)cc2cc(-c3cc(CNC4CCC(N)C4)n4ncnc(N)c34)sc12` (stereo not shown) [Example 40], the IC50 against human FGFR-1 amounted to 63.8 nM. Also, on human mTOR, the inhibition at 1 µM was determined as 15%.

As to `COc1cc(C)cc2cc(-c3cc(CN4CCN(C(=O)C5CC5)CC4)n4ncnc(N)c34)sc12` [Example 93, (4-{[4-Amino-5-(7-methoxy-5-methyl-1-benzothiophen-2-yl)pyrrolo[2,1-f][1,2,4]triazin-7-yl]-methyl}piperazin-1-yl)(cyclopropyl)methanone], half-maximal inhibition on human FGFR-1 (IC50) was put at 67 nM. Further, the inhibition at 1 µM on human mTOR was determined as 47.2%.

On human FGFR-1, `COc1cc(C)cc2cc(-c3cc(CN4CCN(CCO)CC4)n4ncnc(N)c34)sc12` [Example 25] registered an IC50 of 73.3 nM. In addition, on human mTOR, the inhibition at 1 µM amounted to 10.2%.

Turning to `COc1cc(C)cc2cc(-c3cc(CN4CCNC(C(=O)O)C4)n4ncnc(N)c34)sc12` (stereo not shown) [Example 38], the IC50 against human FGFR-1 is 45.7 nM. The inhibition at 1 µM on human mTOR is 11.2%.

In turn, `COc1cc(C)cc2cc(-c3cc(CN(C)C4CCN(C)C4)n4ncnc(N)c34)sc12` (stereo not shown) [Example 46] gave a 50% inhibitory concentration (IC50) on human FGFR-1 of 20.8 nM. Moreover, the inhibition at 1 µM at human mTOR came out at 26.3%.

`COc1cc(C)cc2cc(-c3cc(CNCCN)n4ncnc(N)c34)sc12` [Example 32] showed a concentration for half-maximal inhibition (IC50) against human FGFR-1 of 23.3 nM. Besides, the inhibition at 1 µM on human mTOR stood at 41.3%.

In turn, `COc1cc(C)cc2cc(-c3cc(CN4CCNC(C(C)(C)C)C4)n4ncnc(N)c34)sc12` (stereo not shown) [Example 49] gave a half-maximal inhibitory concentration (IC50) on human FGFR-1 of 58.9 nM. Also, the inhibition at 1 µM on human mTOR is 1.3%.

Take `COc1cc(C)cc2cc(-c3cc(CNCCNC(C)(C)C)n4ncnc(N)c34)sc12` [Example 34]: at human FGFR-1, the IC50 was determined as 99.3 nM. Also, the inhibition at 1 µM on human mTOR is 4.9%.

With `CCC1CN(Cc2cc(-c3cc4cc(C)cc(OC)c4s3)c3c(N)ncnn23)CCN1` (stereo not shown) [Example 36], at human FGFR-1, the midpoint of inhibition, the IC50, lay at 17 nM. The inhibition at 1 µM at human mTOR was found to be 18.3%.

Compound `COc1cc(C)cc2cc(-c3cc(CN4CCN(C(=O)CCC(N)=O)CC4)n4ncnc(N)c34)sc12` [Example 95, 4-(4-{[4-Amino-5-(7-methoxy-5-methyl-1-benzothiophen-2-yl)pyrrolo[2,1-f][1,2,4]triazin-7-yl]-methyl}piperazin-1-yl)-4-oxobutanamide dihydrochloride] returned an IC50 against human FGFR-1 of 95.7 nM. Moreover, the inhibition at 1 µM at human mTOR stood at 40.3%.

On to `COc1cc(C)cc2cc(-c3cc(CN4CCN(C(=O)C5CCC5)CC4)n4ncnc(N)c34)sc12` [Example 94, (4-{[4-Amino-5-(7-methoxy-5-methyl-1-benzothiophen-2-yl)pyrrolo[2,1-f][1,2,4]triazin-7-yl]-methyl}piperazin-1-yl)(cyclobutyl)methanone], for which the IC50 at human FGFR-1 is 68.1 nM. For the same compound, the inhibition at 1 µM at human mTOR was 44.7%.

As to `COc1cc(C)cc2cc(-c3cc(CNC4CCCN(C)C4)n4ncnc(N)c34)sc12` (stereo not shown) [Example 43], 50.6 nM corresponded to half-maximal inhibition against human FGFR-1 (IC50). Further, the inhibition at 1 µM at human mTOR is 13.8%.

With `Nc1nccn2c(C3CCC3)nc(-c3cc4ccccc4s3)c12` [WO 2007/061737 Example 120, reference compound], the IC50 against human FGFR-3 stood at 506 nM.

In turn, `COc1cc(C)cc2cc(-c3cc(CN4CCN(C)CC4)n4ncnc(N)c34)sc12` [Example 12, 5-(7-Methoxy-5-methyl-1-benzothiophen-2-yl)-7-[(4-methylpiperazin-1-yl)methyl]pyrrole[2,1-f]-[1,2,4]triazin-4-amine bis(formiate)] showed an IC50 against human FGFR-1 of 39.1 nM. Moreover, the inhibition at 1 µM at human mTOR was found to be 11.4%.

`COc1cc(C)cc2cc(-c3cc(CN4CCN5CCCC5C4)n4ncnc(N)c34)sc12` (stereo not shown) [Example 50] had an IC50 against human FGFR-1 of 59.3 nM. The inhibition at 1 µM at human mTOR was 3.4%.

For `COc1cc(C)cc2cc(-c3cc(CNCCNC(N)=O)n4ncnc(N)c34)sc12` [Example 30], inhibition against human FGFR-1 was half-maximal at 54.2 nM (IC50). Also, the inhibition at 1 µM at human mTOR worked out at 16.2%.

Turning to `COc1cc(C)cc2cc(-c3cc(CN(C)CCCN(C)C)n4ncnc(N)c34)sc12` [Example 52], half-maximal inhibition against human FGFR-1 (IC50) required 87.8 nM. Besides, the inhibition at 1 µM at human mTOR came to 7.3%.

`COc1cc(C)cc2cc(-c3cc(CNC4CCCNC4=O)n4ncnc(N)c34)sc12` (stereo not shown) [Example 37]: on human FGFR-1, the IC50 was 44.9 nM. For the same compound, the inhibition at 1 µM at human mTOR came out at 13.4%.

With `COc1cc(C)cc2cc(-c3cc(CN4CCCNCC4)n4ncnc(N)c34)sc12` [Example 48], at human FGFR-1, the IC50 stood at 28.9 nM. For the same compound, the inhibition at 1 µM on human mTOR is 16.9%.

`Nc1nccn2c(C3CCC3)nc(-c3ccc4sccc4c3)c12` [WO 2007/061737 Example 4, reference compound]: on human FGFR-3, half-maximal inhibition (IC50) required 2400 nM.

For `COc1cc(C)cc2cc(-c3cc(CN4CNC(=O)C4)n4ncnc(N)c34)sc12` [Example 63], it took 34.5 nM to reach half-maximal inhibition on human FGFR-3 (IC50). The inhibition at 1 µM on human mTOR was determined as 26%.

`COc1cc(C)cc2cc(-c3cc(CN4CCNC(=O)C4C)n4ncnc(N)c34)sc12` (stereo not shown) [Example 39] showed an IC50 against human FGFR-1 of 57.1 nM. Also, at human mTOR, the inhibition at 1 µM was determined as 21.4%.

`CNCCNCc1cc(-c2cc3cc(C)cc(OC)c3s2)c2c(N)ncnn12` [Example 29] yielded an IC50 on human FGFR-1 of 50.4 nM. Besides, the inhibition at 1 µM on human mTOR worked out at 2.4%.

On to `CCN1CCN(Cc2cc(-c3cc4cc(C)cc(OC)c4s3)c3c(N)ncnn23)CC1` [Example 13, 7-[(4-Ethylpiperazin-1-yl)methyl]-5-(7-methoxy-5-methyl-1-benzothiophen-2-yl)pyrrole[2,1-f]-[1,2,4]triazin-4-amine formiate], for which the IC50 on human FGFR-1 is 93.6 nM. Further, the inhibition at 1 µM at human mTOR is 25.2%.

For the compound `Nc1nccn2c(C3CCN(C(=O)c4ccsc4)CC3)nc(-c3cc4ccccc4s3)c12` [WO 2007/061737 Example 157, reference compound], the IC50 against human FGFR-1 was 3000 nM; at human FGFR-3, 2300 nM.

Consider `Cc1c(-c2nc(C3CCN(C(=O)c4ccsc4)CC3)n3ccnc(N)c23)sc2ccccc12` [WO 2007/061737 Example 209, reference compound], for which the figures for the IC50 on human FGFR-1 and at human FGFR-3 were 2800 nM and 786 nM, respectively.

As for `Nc1nccn2c(C3CCNCC3)nc(-c3cc4ccccc4[nH]3)c12` [WO 2007/061737 Example 25, reference compound], the IC50 turned out to be 880 nM on human FGFR-1 and 1200 nM against human FGFR-3.

As to `COc1cc(C)cc2cc(-c3cc(COCCN(C)C)n4ncnc(N)c34)sc12` [Example 108, 7-{[2-(Dimethylamino)ethoxy]methyl}-5-(7-methoxy-5-methyl-1-benzothiophen-2-yl)pyrrolo-[2,1-f][1,2,4]triazin-4-amine dihydrochloride], at human FGFR-1, the IC50 worked out at 97.6 nM. Also, at human mTOR, the inhibition at 1 µM was found to be 7.1%.

For the compound `COc1cc(C)cc2cc(-c3cc(CN4C[C@@H]5CCCN[C@@H]5C4)n4ncnc(N)c34)sc12` [Example 47], inhibition on human FGFR-1 was half-maximal at 25.2 nM (IC50). Also, the inhibition at 1 µM on human mTOR came out at 29%.

For orientation: IC50 means the point on the concentration scale where inhibition reaches its midpoint. A higher IC50 goes with a need for much substance. As usually defined, the inhibition is the percentage by which the read-out fell short of the control.

The record behind these values is patent US9475815B2, “Substituted benzothienyl-pyrrolotriazines and uses thereof” (Bayer Intellectual Property GmbH, priority 2012, dated 2016).
